# In ChEMBL document CHEMBL1128375, “Prodrugs of nitroxyl as potential aldehyde dehydrogenase inhibitors vis-a-vis vascular smooth muscle relaxants” (J Med Chem, 1995):
# Species on record: Oryctolagus cuniculus
# Experiment: In vitro relaxation of precontracted rabbit aortic rings.
# Assay type: functional
# Conditions: Aorta
row,Structure (SMILES),EC50
1,CC(=O)ON1C(=O)c2ccccc2S1(=O)=O,52.2 µM
2,O=C1c2ccccc2S(=O)(=O)N1O,14.4 µM
3,O=S(=O)(NO)c1ccc(Cl)cc1,1.36 µM
4,O=S(=O)(NO)c1ccccc1,1.03 µM
